We go through 20 compounds from ChEMBL document CHEMBL1144595, “Novel pyridinyl and pyrimidinylcarbazole sulfonamides as antiproliferative agents” (Bioorg Med Chem Lett, 2007).

Type in all cases: functional, cell-based
Assay [1] deals with CCRF-CEM. As to the kind of experiment: Cytotoxicity against human CEM cells.
Assay [2] can be described thus: Antiproliferative activity against human DND1 cells.
Assay [3] deals with MOLT-3. Description: Antiproliferative activity against human Molt3 cells.
Assay [4] relates to MCF7. As to the kind of experiment: Antiproliferative activity against human MCF7 cells.
The subject of assay [5] is DU-145. Description: Antiproliferative activity against human DU145 cells.
For assay [6], the system named is PC-3. As to the kind of experiment: Antiproliferative activity against human PC3 cells.
Assay [7] has as its system Bel-7402. Description: Antiproliferative activity against human Bel-7402 cells.

Molecules are shown by their SMILES. Bounds are passed on as bounds.

`COc1ccc(NS(=O)(=O)c2ccc3c(ccn3C)c2)c(OC)n1` had an IC50 in assay [1] of 712 nM. That is a sub-micromolar value.
Still for that read-out and setting: in the case of `CCn1c2ccccc2c2cc(/C=C\c3ccc(OC)nc3OC)ccc21` it was more than 2000 nM.
For `CCn1c2ccccc2c2cc(S(=O)(=O)Nc3cc(OC)c(OC)c(OC)c3)ccc21`, the IC50 in assay [2] worked out at 89 nM; in assay [1], 56 nM.
Take `CCn1c2ccccc2c2cc(S(=O)(=O)Nc3nc(OC)cc(OC)n3)ccc21`: in assay [1], the half-maximal inhibitory concentration (IC50) is more than 2000 nM.
Same read-out and setting: the figure for `COc1ccc(/C=C\c2ccc(OC)c(O)c2)c(OC)n1` is 342 nM.
For `CCn1c2ccccc2c2cc(S(=O)(=O)Nc3ccc(OC)nc3OC)ccc21`, the IC50 stood at 22 nM in assay [3]; 241 nM in assay [4]; 729 nM in assay [5]; 193 nM in assay [2]; 603 nM in assay [6]; 976 nM in assay [7]. 122 nM corresponded to half-maximal inhibition in assay [1] (IC50).
For the compound `CCn1c2ccccc2c2cc(S(=O)(=O)Nc3ccc(OC)cc3OC)ccc21`, the IC50 in assay [2] came out at 120 nM; in assay [1] it was 57 nM.
Take `CCn1c2ccccc2c2cc(S(=O)(=O)Nc3cc(OC)nc(OC)n3)ccc21`: the 50% inhibitory concentration (IC50) in assay [1] was more than 2000 nM.
`CCn1c2ccccc2c2cc(S(=O)(=O)Nc3ccc(Cl)nc3Cl)ccc21` came in with a 50% inhibitory concentration (IC50) in assay [1] of more than 2000 nM.
The same measure, in the same setting: in the case of `COc1ccc(NS(=O)(=O)c2ccc3c(c2)c2ccccc2n3C)c(OC)n1` it was 101 nM.
With `COc1ccc(/C=C\c2cc(OC)c(OC)c(OC)c2)cc1O` [COMBRETASTATIN A4], in assay [2], inhibition was half-maximal at 2.5 nM (IC50).
In turn, `COc1ccc(NS(=O)(=O)c2ccc3c(c2)CCN3C)c(OC)n1` gave an IC50 in assay [1] of more than 2000 nM.
On the same count and under the same terms, the figure for `CCn1c2ccccc2c2cc(S(=O)(=O)Nc3ccc(OC)nc3)ccc21` is 649 nM.
`CCn1c2ccccc2c2cc(S(=O)(=O)Nc3cc(OC)ncn3)ccc21` had an IC50 in assay [1] of more than 2000 nM.
On to `CCn1c2ccccc2c2cc(S(=O)(=O)Nc3ccc(C)nc3C)ccc21`, for which the IC50 in assay [1] was more than 2000 nM.
For `COc1cc([C@@H]2c3cc4c(cc3[C@H](O)[C@H]3COC(=O)[C@H]23)OCO4)cc(OC)c1OC` [PODOFILOX], the figures for the concentration for half-maximal inhibition (IC50) in assay [2] and in assay [1] were 12 nM and 7.2 nM, respectively.
As for `CCn1c2ccccc2c2cc(/C=C/c3ccc(OC)nc3OC)ccc21`, the IC50 in assay [1] is more than 2000 nM.
The same measure, in the same setting: in the case of `CCn1c2ccccc2c2cc(S(=O)(=O)Nc3cccnc3OC)ccc21` it was 786 nM; in that of `COc1ccc(/C=C/c2ccc(OC)c(O)c2)c(OC)n1`, more than 2000 nM; in that of `CCn1c2ccccc2c2cc(S(=O)(=O)Nc3cc(Cl)nc(Cl)c3)ccc21`, more than 2000 nM.

Usually IC50 stands for the concentration that gives 50% inhibition. Read a low IC50 as greater potency.
